# Experiments:
# [1] = system: brain blood flow; details: humans exposed to nerol and geraniol (aroma components of lemongrass extract); cited from earlier work
# [2] = system: EEG; experiment: Reference Example: EEG test in the same manner as in Test Example 4; type: in vivo, human (healthy Japanese men and women, 20 to 39 years old); details: 10-ppm aqueous solution, same manner as Test Example 4 (EEG), 20 subjects
# Description: Each subject was instructed to wear an electroencephalograph (model number: HARU-2, manufactured by PGV Co., Ltd.), and to wait for 5 minutes at rest, and then asked to answer a questionnaire for one minute. Subsequently, each subject was instructed to ingest 200 mL of the test beverage within 5 minutes, and thereafter, to wait at rest except for answering the questionnaire for one minute immediately after the ingestion, 15 minutes after the ingestion, 30 minutes after the ingestion and 45 minutes after the ingestion. The EEG were measured from before the ingestion of the test beverage until 45 minutes after the ingestion. The same measurement was carried out one more time. The beverage to be ingested was selected at random for each subject, and each subject was instructed to ingest each beverage once.
# In the analysis of EEG, the data obtained during the questionnaires and the ingestion that affect the EEG were excluded from the analysis target. The EEG measured during each waiting time at rest before and after the ingestion were analyzed using the MNE library (ver. 1.3.0) in Python language, and the B/a ratio was calculated from the two-minute data. No exclusion of target data was allowed, and all cases were analyzed as the target.
# The test was carried out in the same manner as in Test Example 4, using a 10-ppm aqueous solution of each of: geraniol, which is the isomer of nerol; α-terpineol, which is a degradation product of nerol; and linalool, on 20 healthy Japanese men and women with ages ranging from 20 years old to 39 years old, as the subjects. As a result, the effect of enhancing activation was not observed in any of geraniol, α-terpineol and linalool.
# [3] = system: rats; details: cited from earlier work
Compound,amount of brain blood flow [1],effect of enhancing activation [2],"acceptable daily intake (ADI) per person ([3]; calculated, assuming an adult with a body weight of 50 kg) [mg/person/day]",acceptable daily intake (ADI) ([3]; calculated) [mg/kg/day],"no-observed adverse effect level (NOAEL), lowest value ([3]; repeated dose toxicity study on rats) [mg/kg/day]"
CC(C)=CCC/C(C)=C/CO [geraniol],increased significantly,not observed,–,–,–
C=CC(C)(O)CCC=C(C)C (centres unmarked) [linalool],–,not observed,–,–,–
"CC(C)=CCC/C(C)=C\CO [nerol, (Z)-3,7-dimethyl-2,6-octadien-1-ol]",increased significantly,–,95.5,1.91,191
CC1=CCC(C(C)(C)O)CC1 (stereo not drawn) [α-terpineol],–,not observed,–,–,–
